Data taken from the supplement of paper PMC8612539.
Converted amounts (≈) assume the structure as drawn.

Tested on: Mannheimia haemolytica
Test: minimum inhibitory concentration (MIC)
Procedure: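 Broth microdilution MIC (Sensititre BOPO7F bovine plate, CLSI methods) of 19 antimicrobials against field isolates of P. multocida, M. haemolytica, H. somni (deep nasopharyngeal swabs) and E. coli, Enterococcus spp. (rectal swabs) from weaned dairy heifers. Incubation 16-24 h at 35 C. MIC is the lowest concentration preventing visible growth. Values with <= or > lie at the tested range limits. Trimethoprim-sulfamethoxazole is given as the trimethoprim component of a 1:19 mixture.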

CCCNC[C@]1(O)[C@H](C)O[C@@H](O[C@H]2[C@H](C)[C@@H](O[C@@H]3O[C@H](C)C[C@H](N(C)C)[C@H]3O)[C@](C)(O)C[C@@H](C)CN[C@H](C)[C@@H](O)[C@](C)(O)[C@@H](CC)OC(=O)[C@@H]2C)C[C@@]1(C)OC [Tulathromycin]
Details | minimum inhibitory concentration [µg/mL]
isolate (source animal id): 8 | ≤ 8
isolate (source animal id): 13 | ≤ 8
isolate (source animal id): 18 | ≤ 8
isolate (source animal id): 21 | ≤ 8
isolate (source animal id): 25 | 16 (≈ 19.8 µM)
isolate (source animal id): 27 | 16 (≈ 19.8 µM)
isolate (source animal id): 28 | ≤ 8
isolate (source animal id): 30 | ≤ 8
isolate (source animal id): 31 | 16 (≈ 19.8 µM)
isolate (source animal id): 32 | ≤ 8
isolate (source animal id): 34 | ≤ 8
isolate (source animal id): 36 | 16 (≈ 19.8 µM)
isolate (source animal id): 37 | 16 (≈ 19.8 µM)
isolate (source animal id): 40 | ≤ 8
isolate (source animal id): 41 | ≤ 8
isolate (source animal id): 43 | ≤ 8
isolate (source animal id): 46 | 16 (≈ 19.8 µM)
isolate (source animal id): 49 | 16 (≈ 19.8 µM)
isolate (source animal id): 50 | 16 (≈ 19.8 µM)
isolate (source animal id): 51 | ≤ 8
isolate (source animal id): 52 | ≤ 8
isolate (source animal id): 53 | ≤ 8
isolate (source animal id): 55 | ≤ 8
isolate (source animal id): 56 | ≤ 8
isolate (source animal id): 57 | > 64
isolate (source animal id): 100 | 16 (≈ 19.8 µM)
isolate (source animal id): 103 | 16 (≈ 19.8 µM)
isolate (source animal id): 107 | 16 (≈ 19.8 µM)
isolate (source animal id): 108 | 16 (≈ 19.8 µM)
isolate (source animal id): 112 | > 64
isolate (source animal id): 113 | > 64
isolate (source animal id): 121 | 16 (≈ 19.8 µM)
isolate (source animal id): 122 | 16 (≈ 19.8 µM)
isolate (source animal id): 123 | > 64
isolate (source animal id): 126 | 64 (≈ 79.4 µM)
isolate (source animal id): 133 | > 64
isolate (source animal id): 135 | > 64
isolate (source animal id): 138 | 64 (≈ 79.4 µM)
isolate (source animal id): 141 | > 64
isolate (source animal id): 142 | 64 (≈ 79.4 µM)
isolate (source animal id): 145 | 16 (≈ 19.8 µM)
isolate (source animal id): 149 | ≤ 8
isolate (source animal id): 151 | ≤ 8
isolate (source animal id): 152 | 16 (≈ 19.8 µM)
isolate (source animal id): 154 | ≤ 8
isolate (source animal id): 159 | > 64
isolate (source animal id): 162 | 64 (≈ 79.4 µM)
isolate (source animal id): 170 | ≤ 8
isolate (source animal id): 171 | ≤ 8
isolate (source animal id): 172 | ≤ 8
isolate (source animal id): 173 | ≤ 8
isolate (source animal id): 179 | ≤ 8
isolate (source animal id): 180 | ≤ 8
isolate (source animal id): 183 | ≤ 8
isolate (source animal id): 186 | ≤ 8
isolate (source animal id): 187 | ≤ 8
isolate (source animal id): 188 | ≤ 8
isolate (source animal id): 190 | ≤ 8
isolate (source animal id): 191 | ≤ 8
isolate (source animal id): 192 | ≤ 8
isolate (source animal id): 201 | ≤ 8
isolate (source animal id): 202 | ≤ 8
isolate (source animal id): 209 | ≤ 8
isolate (source animal id): 211 | ≤ 8
isolate (source animal id): 220 | ≤ 8
isolate (source animal id): 221 | ≤ 8
isolate (source animal id): 223 | ≤ 8
isolate (source animal id): 233 | 16 (≈ 19.8 µM)
isolate (source animal id): 237 | 32 (≈ 39.7 µM)
isolate (source animal id): 241 | 16 (≈ 19.8 µM)
isolate (source animal id): 252 | 16 (≈ 19.8 µM)
isolate (source animal id): 253 | 16 (≈ 19.8 µM)
isolate (source animal id): 259 | > 64
isolate (source animal id): 260 | 16 (≈ 19.8 µM)
isolate (source animal id): 262 | 16 (≈ 19.8 µM)
isolate (source animal id): 282 | > 64
isolate (source animal id): 287 | 16 (≈ 19.8 µM)
isolate (source animal id): 288 | ≤ 8
isolate (source animal id): 291 | ≤ 8
isolate (source animal id): 293 | 16 (≈ 19.8 µM)
isolate (source animal id): 298 | > 64
isolate (source animal id): 299 | > 64
isolate (source animal id): 300 | ≤ 8
isolate (source animal id): 302 | > 64
isolate (source animal id): 304 | > 64
isolate (source animal id): 306 | ≤ 8
isolate (source animal id): 308 | ≤ 8
isolate (source animal id): 309 | ≤ 8
isolate (source animal id): 313 | 32 (≈ 39.7 µM)
isolate (source animal id): 318 | ≤ 8
isolate (source animal id): 320 | ≤ 8
isolate (source animal id): 321 | 32 (≈ 39.7 µM)
isolate (source animal id): 323 | > 64
isolate (source animal id): 324 | 16 (≈ 19.8 µM)
isolate (source animal id): 326 | 32 (≈ 39.7 µM)
isolate (source animal id): 328 | 32 (≈ 39.7 µM)
isolate (source animal id): 329 | 32 (≈ 39.7 µM)
isolate (source animal id): 333 | 32 (≈ 39.7 µM)
isolate (source animal id): 335 | 16 (≈ 19.8 µM)
isolate (source animal id): 338 | 16 (≈ 19.8 µM)

CCN1CCN(c2cc3c(cc2F)c(=O)c(C(=O)O)cn3C2CC2)CC1 [Enrofloxacin]
Details | minimum inhibitory concentration [µg/mL]
isolate (source animal id): 8 | 0.5 (≈ 1.39 µM)
isolate (source animal id): 13 | 0.5 (≈ 1.39 µM)
isolate (source animal id): 18 | 0.5 (≈ 1.39 µM)
isolate (source animal id): 21 | 0.5 (≈ 1.39 µM)
isolate (source animal id): 25 | 0.5 (≈ 1.39 µM)
isolate (source animal id): 27 | 0.5 (≈ 1.39 µM)
isolate (source animal id): 28 | 1 (≈ 2.78 µM)
isolate (source animal id): 30 | 0.5 (≈ 1.39 µM)
isolate (source animal id): 31 | 1 (≈ 2.78 µM)
isolate (source animal id): 32 | 0.25 (≈ 0.696 µM)
isolate (source animal id): 34 | 0.5 (≈ 1.39 µM)
isolate (source animal id): 36 | 0.5 (≈ 1.39 µM)
isolate (source animal id): 37 | 1 (≈ 2.78 µM)
isolate (source animal id): 40 | 0.5 (≈ 1.39 µM)
isolate (source animal id): 41 | 0.5 (≈ 1.39 µM)
isolate (source animal id): 43 | 0.5 (≈ 1.39 µM)
isolate (source animal id): 46 | 0.5 (≈ 1.39 µM)
isolate (source animal id): 49 | 0.5 (≈ 1.39 µM)
isolate (source animal id): 50 | 0.5 (≈ 1.39 µM)
isolate (source animal id): 51 | 0.5 (≈ 1.39 µM)
isolate (source animal id): 52 | 0.5 (≈ 1.39 µM)
isolate (source animal id): 53 | 0.5 (≈ 1.39 µM)
isolate (source animal id): 55 | 0.5 (≈ 1.39 µM)
isolate (source animal id): 56 | 0.5 (≈ 1.39 µM)
isolate (source animal id): 57 | > 2
isolate (source animal id): 100 | 2 (≈ 5.56 µM)
isolate (source animal id): 103 | 0.5 (≈ 1.39 µM)
isolate (source animal id): 107 | 0.5 (≈ 1.39 µM)
isolate (source animal id): 108 | 0.5 (≈ 1.39 µM)
isolate (source animal id): 112 | 0.5 (≈ 1.39 µM)
isolate (source animal id): 113 | > 2
isolate (source animal id): 121 | 0.5 (≈ 1.39 µM)
isolate (source animal id): 122 | 0.5 (≈ 1.39 µM)
isolate (source animal id): 123 | > 2
isolate (source animal id): 126 | 2 (≈ 5.56 µM)
isolate (source animal id): 133 | > 2
isolate (source animal id): 135 | > 2
isolate (source animal id): 138 | 2 (≈ 5.56 µM)
isolate (source animal id): 141 | > 2
isolate (source animal id): 142 | 1 (≈ 2.78 µM)
isolate (source animal id): 145 | 1 (≈ 2.78 µM)
isolate (source animal id): 149 | ≤ 0.12
isolate (source animal id): 151 | ≤ 0.12
isolate (source animal id): 152 | 1 (≈ 2.78 µM)
isolate (source animal id): 154 | ≤ 0.12
isolate (source animal id): 159 | 1 (≈ 2.78 µM)
isolate (source animal id): 162 | 1 (≈ 2.78 µM)
isolate (source animal id): 170 | ≤ 0.12
isolate (source animal id): 171 | ≤ 0.12
isolate (source animal id): 172 | ≤ 0.12
isolate (source animal id): 173 | ≤ 0.12
isolate (source animal id): 179 | ≤ 0.12
isolate (source animal id): 180 | ≤ 0.12
isolate (source animal id): 183 | ≤ 0.12
isolate (source animal id): 186 | ≤ 0.12
isolate (source animal id): 187 | ≤ 0.12
isolate (source animal id): 188 | ≤ 0.12
isolate (source animal id): 190 | ≤ 0.12
isolate (source animal id): 191 | ≤ 0.12
isolate (source animal id): 192 | ≤ 0.12
isolate (source animal id): 201 | ≤ 0.12
isolate (source animal id): 202 | ≤ 0.12
isolate (source animal id): 209 | ≤ 0.12
isolate (source animal id): 211 | ≤ 0.12
isolate (source animal id): 220 | ≤ 0.12
isolate (source animal id): 221 | ≤ 0.12
isolate (source animal id): 223 | ≤ 0.12
isolate (source animal id): 233 | 1 (≈ 2.78 µM)
isolate (source animal id): 237 | 1 (≈ 2.78 µM)
isolate (source animal id): 241 | 1 (≈ 2.78 µM)
isolate (source animal id): 252 | 0.5 (≈ 1.39 µM)
isolate (source animal id): 253 | 0.5 (≈ 1.39 µM)
isolate (source animal id): 259 | > 2
isolate (source animal id): 260 | 0.5 (≈ 1.39 µM)
isolate (source animal id): 262 | 1 (≈ 2.78 µM)
isolate (source animal id): 282 | > 2
isolate (source animal id): 287 | 0.5 (≈ 1.39 µM)
isolate (source animal id): 288 | ≤ 0.12
isolate (source animal id): 291 | ≤ 0.12
isolate (source animal id): 293 | 0.5 (≈ 1.39 µM)
isolate (source animal id): 298 | 0.5 (≈ 1.39 µM)
isolate (source animal id): 299 | 0.5 (≈ 1.39 µM)
isolate (source animal id): 300 | ≤ 0.12
isolate (source animal id): 302 | 0.5 (≈ 1.39 µM)
isolate (source animal id): 304 | 0.5 (≈ 1.39 µM)
isolate (source animal id): 306 | ≤ 0.12
isolate (source animal id): 308 | ≤ 0.12
isolate (source animal id): 309 | ≤ 0.12
isolate (source animal id): 313 | 0.5 (≈ 1.39 µM)
isolate (source animal id): 318 | 0.25 (≈ 0.696 µM)
isolate (source animal id): 320 | ≤ 0.12
isolate (source animal id): 321 | 0.5 (≈ 1.39 µM)
isolate (source animal id): 323 | 0.5 (≈ 1.39 µM)
isolate (source animal id): 324 | 0.5 (≈ 1.39 µM)
isolate (source animal id): 326 | 0.5 (≈ 1.39 µM)
isolate (source animal id): 328 | 0.5 (≈ 1.39 µM)
isolate (source animal id): 329 | 0.5 (≈ 1.39 µM)
isolate (source animal id): 333 | 0.5 (≈ 1.39 µM)
isolate (source animal id): 335 | 0.5 (≈ 1.39 µM)
isolate (source animal id): 338 | 0.5 (≈ 1.39 µM)
